Experimental findings from patent US5645995A, “Methods for diagnosing an increased risk for breast or ovarian cancer” (Baylor College of Medicine, priority 1996, dated 1997) are described below.

In assay [1] the target is T1, wild-type human progesterone receptor (Homo sapiens, UniProt P06401).
T1 construct: expressed in transfected cells; host or cells: COS cells (no endogenous progesterone receptor), pcDNAI/Amp vector
T1 sequence (P06401 1-933): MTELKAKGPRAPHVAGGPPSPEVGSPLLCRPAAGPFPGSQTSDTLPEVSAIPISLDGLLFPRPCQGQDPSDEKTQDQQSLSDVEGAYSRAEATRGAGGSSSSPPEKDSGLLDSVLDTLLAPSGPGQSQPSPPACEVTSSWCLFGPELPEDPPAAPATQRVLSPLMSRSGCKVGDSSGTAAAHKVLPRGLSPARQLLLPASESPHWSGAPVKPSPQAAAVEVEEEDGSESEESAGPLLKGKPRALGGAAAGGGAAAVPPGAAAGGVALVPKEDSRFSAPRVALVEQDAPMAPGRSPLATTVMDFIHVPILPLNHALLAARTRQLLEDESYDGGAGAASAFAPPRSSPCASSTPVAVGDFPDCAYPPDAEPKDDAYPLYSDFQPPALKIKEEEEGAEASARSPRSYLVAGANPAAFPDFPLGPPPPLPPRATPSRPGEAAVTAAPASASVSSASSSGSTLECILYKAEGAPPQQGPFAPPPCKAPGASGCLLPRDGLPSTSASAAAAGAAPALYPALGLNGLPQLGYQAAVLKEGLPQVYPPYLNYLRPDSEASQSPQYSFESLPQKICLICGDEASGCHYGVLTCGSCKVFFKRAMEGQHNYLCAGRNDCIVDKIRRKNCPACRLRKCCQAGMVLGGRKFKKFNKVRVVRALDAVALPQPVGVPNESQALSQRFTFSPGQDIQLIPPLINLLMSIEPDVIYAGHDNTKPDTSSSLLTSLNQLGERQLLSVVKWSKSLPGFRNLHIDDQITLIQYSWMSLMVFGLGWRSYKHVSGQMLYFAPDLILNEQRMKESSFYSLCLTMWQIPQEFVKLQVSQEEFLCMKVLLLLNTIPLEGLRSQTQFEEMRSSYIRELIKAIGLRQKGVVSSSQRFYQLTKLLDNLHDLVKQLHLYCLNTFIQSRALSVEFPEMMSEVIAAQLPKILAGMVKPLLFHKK
The assay can be described thus: Hormone-binding Whole Cell Assay with Scatchard analysis, COS cells expressing wild-type receptor. Conditions: COS cells infected with 250 ng receptor DNA, 50-6400 pM [3H]R5020 overnight, Scatchard analysis (FIG. 7B), read-out: dissociation constant. The procedure: (§1) To determine whether the increase in transcriptional activity found above was due to changes in hormone-binding affinity, hormone binding affinity was measured in a Whole Cell Assay, as described by Bai et al, Mol. Endo., 8(11):1465-1473 (1994), using DNA encoding both the mutant and wild-type progesterone receptor proteins.
(§2) More specifically, COS cells were infected with 250 ng of either mutant or wild-type receptor DNA, as described above, and the infected cells were incubated overnight in DME containing 5.0% (v/v) fetal calf serum and 50-6400 pM of [^3 H]R5020 (DuPont NEN, NET-555) before harvesting. Next, the harvested cells were subjected to ethanol extraction, and bound hormone was measured by CPM counting of the extracts.

Assay [2] deals with T2, mutant human progesterone receptor (valine to leucine at amino acid 660) (Homo sapiens, UniProt P06401, V660L).
T2 construct: expressed in transfected cells; host or cells: COS cells (no endogenous progesterone receptor), pcDNAI/Amp vector
T2 sequence (P06401 1-933 V660L): T1 sequence (P06401 1-933) with V660L
The assay can be described thus: Hormone-binding Whole Cell Assay with Scatchard analysis, COS cells expressing mutant receptor. Particulars: COS cells infected with 250 ng receptor DNA, 50-6400 pM [3H]R5020 overnight, Scatchard analysis (FIG. 7B), read-out: dissociation constant. The procedure:
as §1, §2

Each structure is given as a SMILES string. Numbering of substitutions follows the chain as printed.

Turning to `CCC(=O)[C@@]1(C)CC[C@H]2[C@@H]3CCC4=CC(=O)CCC4=C3CC[C@@]21C` [R5020], the Kd in assay [1] and in assay [2] was 0.25 nM throughout.
